From BigSolDB 2.1

CNC(=O)c1cc(Oc2ccc(N)cc2)ccn1
solubility (mole fraction)
Details | in THF | in acetone | in acetonitrile | in acetylacetone | in dichloromethane | in ethyl acetate | in methanol | in n-butanol | in n-propanol | in water
278.15 K | 0.0919 | 0.046 | 0.0286 | 0.0202 | 0.00511 | 0.0568 | 0.00985 | 0.0041 | 0.00552 | 0.000327
283.15 K | 0.0992 | 0.0481 | 0.033 | 0.0214 | 0.00821 | 0.0667 | 0.0126 | 0.0047 | 0.00674 | 0.00035
288.15 K | 0.108 | 0.0514 | 0.0401 | 0.0232 | 0.0139 | 0.0793 | 0.0162 | 0.00592 | 0.00879 | 0.000387
293.15 K | 0.119 | 0.0558 | 0.0497 | 0.0256 | 0.0211 | 0.0939 | 0.0212 | 0.00796 | 0.0114 | 0.000438
298.15 K | 0.13 | 0.0616 | 0.0601 | 0.0285 | 0.0297 | 0.112 | 0.0285 | 0.0101 | 0.0145 | 0.000506
303.15 K | 0.144 | 0.0683 | 0.0737 | 0.0321 | 0.0413 | 0.131 | 0.0378 | 0.0135 | 0.0185 | 0.000598
308.15 K | 0.159 | 0.0766 | 0.091 | 0.0367 | 0.0549 | 0.154 | 0.0497 | 0.0174 | 0.0241 | 0.000715
313.15 K | 0.174 | 0.086 | 0.11 | 0.042 | 0.0727 | 0.181 | 0.0642 | 0.0225 | 0.0312 | 0.000857
318.15 K | 0.194 | 0.0975 | 0.134 | 0.048 | 0.0947 | 0.209 | 0.0825 | 0.0287 | 0.0398 | 0.00106
323.15 K | 0.214 | 0.112 | 0.161 | 0.0558 | 0.123 | 0.242 | 0.106 | 0.0369 | 0.0507 | 0.00133
